molecular target: T1, Human Neutrophil Elastase (Homo sapiens, UniProt P08246); assay: Human Neutrophil Elastase Quenched-FRET Assay; format: biochemical; conditions: HNE purified from serum; substrate MeOSuc-AAPV-AMC; 15 min preincubation, 30 min incubation at room temperature; read-out: Inhibition of Human Neutrophil Elastase IC50
T1 construct: Human Neutrophil Elastase (FINE) purified from serum (Calbiochem art. 324681); purchased Calbiochem 324681; host or cells: natural enzyme, purified from serum
T1 sequence (P08246 30-267): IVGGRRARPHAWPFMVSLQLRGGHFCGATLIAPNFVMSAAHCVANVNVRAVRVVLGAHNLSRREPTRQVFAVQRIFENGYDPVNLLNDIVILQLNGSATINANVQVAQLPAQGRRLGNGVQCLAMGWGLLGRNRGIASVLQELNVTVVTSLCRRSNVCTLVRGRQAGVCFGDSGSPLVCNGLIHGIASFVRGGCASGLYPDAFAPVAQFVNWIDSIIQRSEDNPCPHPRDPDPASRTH
Experimental: Human Neutrophil Elastase Quenched-FRET Assay
HNE was stored in 50 mM NaOAc, 200 mM NaCl, pH 5.5 with added 30% glycerol at −20° C. […] The substrate was stored in DMSO at −20° C. […] The assay buffer constitution was: 100 mM Tris (pH 7.5) and 500 mM NaCl. The enzyme and the compounds were incubated at room temperature for 15 minutes. Then 30 μl substrate in assay buffer was added. The assay was stopped after 30 minutes incubation at room temperature by adding 60 μl stop solution (140 mM acetic acid, 200 mM sodium monochloroacetate, 60 mM sodium acetate, pH 4.3).

| Structure (SMILES) | IC50 |
| --- | --- |
| Cc1c(-c2ccoc2)cc(C(=O)NCc2ccc(S(C)(=O)=O)cc2)c(=O)n1-c1cccc(C(F)(F)F)c1 [Example 2, 5-Furan-3-yl-6-methyl-2-oxo-1-(3-trifluoromethyl-phenyl)-1,2-dihydro-pyridine-3-carboxylic acid 4-methanesulfonyl-benzylamide] | 46 nM |
| COc1ncc(-c2cc(C(=O)NCc3ccc(S(C)(=O)=O)cc3)c(=O)n(-c3cccc(C(F)(F)F)c3)c2C)cn1 [Example 5, 5-(2-Methoxypyrimidin-5-yl)-6-methyl-N-[4-(methylsulfonyl)benzyl]-2-oxo-1-[3-(trifluoromethyl)phenyl]-1,2-dihydropyridine-3-carboxamide] | 48 nM |
| Cc1c(-c2ccccc2)cc(C(=O)NCc2ccc(S(C)(=O)=O)cc2)c(=O)n1-c1cccc(C(F)(F)F)c1 [Example 1, 6-Methyl-N-[4-(methylsulfonyl)benzyl]-2-oxo-5-phenyl-1-[3-(trifluoromethyl)phenyl]-1,2-dihydropyridine-3-carboxamide] | 47 nM |
| Cc1noc(C)c1-c1cc(C(=O)NCc2ccc(S(=O)(=O)C(C)C)cc2)c(=O)n(-c2cccc(C(F)(F)F)c2)c1C [Example 32, 5-(3,5-Dimethylisoxazol-4-yl)-N-[4-(isopropylsulfonyl)benzyl]-6-methyl-2-oxo-1-[3-(trifluoromethyl)phenyl]-1,2-dihydropyridine-3-carboxamide] | 3 nM |

Results, then the compound that gave them:

| IC50 | Structure (SMILES) |
| --- | --- |
| 7 nM | Cc1nnc(-c2cc(C(=O)NCc3ccc(S(=O)(=O)C4CC4)cc3)c(=O)n(-c3cccc(C(F)(F)F)c3)c2C)o1 [Example 46, N-[4-(Cyclopropylsulfonyl)benzyl]-6-methyl-5-(5-methyl-1,3,4-oxadiazol-2-yl)-2-oxo-1-[3-(trifluoromethyl)phenyl]-1,2-dihydropyridine-3-carboxamide] |
| 12 nM | Cc1cc(CNC(=O)c2cc(-c3ccnn3C)c(C)n(-c3cccc(C(F)(F)F)c3)c2=O)on1 [Example 91, 6-Methyl-5-(2-methyl-2H-pyrazol-3-yl)-2-oxo-1-(3-trifluoromethyl-phenyl)-1,2-dihydro-pyridine-3-carboxylic acid (3-methyl-isoxazol-5-ylmethyl)-amide] |
